Measurements: PMC9770967, “Native holdup (nHU) to measure binding affinities from cell extracts” (Science Advances, 2022)
Like-named read-outs stand apart in the source and are kept apart here. *1 amine or outer side, *2 acyl side, *3 side chain or, on linkers, in order; H or OH if unused. Where a SMILES comes first, the peptide text is derived from it. The star is where a group is joined. X1 = O=C(CCCC[C@@H]1SC[C@@H]2NC(=O)N[C@@H]21)NCCCOCCOCCOCCCN*; Suc = O=C(CCC(=O)[*:2])[*:1]

Legend:
[1] = target: isolated PDZ domain of SNX27; conditions: 10-mer PBM peptide vs isolated PDZ domain, holdup; cited from earlier work
[2] = target: endogenous full-length SCRIB (Homo sapiens, UniProt Q14160); experiment: Single-point nHU-WB, 12 PBM peptide baits, Jurkat extract; format: binding
Chain of endogenous full-length SCRIB (Q14160 whole entry, the tested form may be a part): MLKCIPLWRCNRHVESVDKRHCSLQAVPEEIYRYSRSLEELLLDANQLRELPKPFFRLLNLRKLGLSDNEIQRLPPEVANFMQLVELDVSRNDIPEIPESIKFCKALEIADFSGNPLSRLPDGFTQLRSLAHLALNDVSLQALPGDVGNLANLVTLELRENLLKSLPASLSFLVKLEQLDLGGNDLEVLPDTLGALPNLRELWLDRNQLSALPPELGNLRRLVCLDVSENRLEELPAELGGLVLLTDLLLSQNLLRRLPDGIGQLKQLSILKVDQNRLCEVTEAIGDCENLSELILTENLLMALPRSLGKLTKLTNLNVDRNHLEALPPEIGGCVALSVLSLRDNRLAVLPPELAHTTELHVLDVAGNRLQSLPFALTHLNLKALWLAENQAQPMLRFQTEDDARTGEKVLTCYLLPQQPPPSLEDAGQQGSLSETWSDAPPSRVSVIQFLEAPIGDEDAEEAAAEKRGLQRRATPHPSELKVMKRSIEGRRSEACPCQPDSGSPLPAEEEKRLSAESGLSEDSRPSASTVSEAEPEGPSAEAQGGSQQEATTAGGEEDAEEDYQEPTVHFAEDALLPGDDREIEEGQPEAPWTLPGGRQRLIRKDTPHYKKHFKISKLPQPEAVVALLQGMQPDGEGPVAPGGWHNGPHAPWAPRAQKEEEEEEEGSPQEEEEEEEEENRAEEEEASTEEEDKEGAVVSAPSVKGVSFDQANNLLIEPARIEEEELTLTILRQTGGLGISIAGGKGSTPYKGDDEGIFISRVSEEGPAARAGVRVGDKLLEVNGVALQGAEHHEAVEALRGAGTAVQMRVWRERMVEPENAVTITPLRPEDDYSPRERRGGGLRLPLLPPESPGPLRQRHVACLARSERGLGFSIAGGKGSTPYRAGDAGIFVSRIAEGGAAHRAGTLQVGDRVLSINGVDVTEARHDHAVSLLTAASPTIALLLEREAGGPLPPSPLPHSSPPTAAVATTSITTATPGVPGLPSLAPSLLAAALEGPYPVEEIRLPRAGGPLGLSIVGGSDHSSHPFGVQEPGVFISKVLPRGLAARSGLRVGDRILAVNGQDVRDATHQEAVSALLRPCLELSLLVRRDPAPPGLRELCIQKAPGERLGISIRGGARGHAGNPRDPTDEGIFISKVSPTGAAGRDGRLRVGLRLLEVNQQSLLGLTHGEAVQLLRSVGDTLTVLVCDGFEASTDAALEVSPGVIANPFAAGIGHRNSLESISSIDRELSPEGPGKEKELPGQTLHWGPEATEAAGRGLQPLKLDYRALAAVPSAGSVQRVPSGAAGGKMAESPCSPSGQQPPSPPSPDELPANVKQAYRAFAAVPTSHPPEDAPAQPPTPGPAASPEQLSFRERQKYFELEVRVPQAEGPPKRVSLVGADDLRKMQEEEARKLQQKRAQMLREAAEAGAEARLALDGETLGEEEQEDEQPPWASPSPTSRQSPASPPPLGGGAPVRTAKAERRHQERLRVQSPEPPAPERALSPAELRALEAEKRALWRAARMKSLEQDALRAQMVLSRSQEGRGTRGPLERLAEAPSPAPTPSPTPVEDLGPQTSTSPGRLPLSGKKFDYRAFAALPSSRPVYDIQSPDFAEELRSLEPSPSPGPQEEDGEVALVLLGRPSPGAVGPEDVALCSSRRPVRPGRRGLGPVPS

[3] = target: SCRIB PDZ2; conditions: fragmentomic, isolated PDZ domain; cited from earlier work
Text: (§1) Supplement sciadv.ade3828_table_s1.zip/sciadv.ade3828_table_s1.xlsx, sheet "nHU-WB_SP"

[4] = target: SCRIB PDZ3; conditions: fragmentomic, isolated PDZ domain; cited from earlier work
Text: as §1

[5] = target: SCRIB PDZ1; conditions: fragmentomic, isolated PDZ domain; cited from earlier work
Text: Supplement sciadv.ade3828_table_s1.zip/sciadv.ade3828_table_s1.xlsx, sheet "nHU-WB_SP" | column: Domain-motif fragmentomic affinities (ProfAff)

[6] = target: T1, endogenous full-length SNX27 (Homo sapiens, UniProt Q96L92); experiment: Single-point nHU-WB, 12 PBM peptide baits, Jurkat extract; format: binding
T1 construct: Supernatant fractions were probed with specific antibodies against endogenous full-length PDZ domain–containing proteins SCRIB and SNX27; endogenous in cells; host or cells: Jurkat E6.1 total cell extract

CC(C)C[C@H](NC(=O)[C@H](CC(N)=O)NC(=O)[C@@H](NC(=O)[C@H](CCC(=O)O)NC(=O)[C@H](CC(=O)O)NC(=O)[C@H](Cc1c[nH]c2ccccc12)NC(=O)[C@H](C)NC(=O)[C@@H]1CCCN1C(=O)[C@H](CC(=O)O)NC(=O)[C@H](CC(N)=O)NC(=O)CCC(=O)NCCCOCCOCCOCCCNC(=O)CCCC[C@@H]1SC[C@@H]2NC(=O)N[C@@H]21)[C@@H](C)O)C(=O)O [ARHGEF7] ({X1-Suc}-NDPAWDETNL-OH; C-terminus assumed)
pKd (fragmentomic affinity) [1]: 5.66 | Kd [2]: 1.35 µM | pKd_PDZ2 [3]: 4.68 | pKd_PDZ3 [4]: 5.08 | pKd_PDZ1 [5]: 5.50 | Kd [6]: 1.51 µM

CC(C)C[C@H](NC(=O)[C@H](CO)NC(=O)[C@@H](NC(=O)[C@H](CCC(=O)O)NC(=O)[C@H](CC(C)C)NC(=O)[C@H](CO)NC(=O)[C@H](Cc1c[nH]cn1)NC(=O)[C@H](CC(C)C)NC(=O)[C@@H]1CCCN1C(=O)[C@H](CO)NC(=O)CCC(=O)NCCCOCCOCCOCCCNC(=O)CCCC[C@@H]1SC[C@@H]2NC(=O)N[C@@H]21)[C@@H](C)O)C(=O)O [ATP2B1] ({X1-Suc}-SPLHSLETSL-OH; C-terminus assumed)
pKd (fragmentomic affinity) [1]: 5.48 | pKd_PDZ2 [3]: 4.27 | pKd_PDZ3 [4]: 5.54 | pKd_PDZ1 [5]: 5.36

CC(C)[C@H](NC(=O)CN)C(=O)N[C@@H](CCC(=O)O)C(=O)NCC(=O)N[C@@H](CO)C(=O)N[C@@H](CC(=O)O)C(=O)N[C@H](C(=O)N[C@H](C(=O)N[C@@H](CCC(=O)O)C(=O)N[C@@H](C)C(=O)O)[C@@H](C)O)[C@@H](C)O [MAP4] (H-GVEGSDTTEA-OH)
Kd ([2]; apparent, Eq. 2, ~10 μM bait, Jurkat extract, mean of replicates with a value, read-out: av.pKapp (converted)): 1.17 µM | Kd ([6]; apparent, Eq. 2, ~10 μM bait, Jurkat extract, mean of n = 3, read-out: av.pKapp (converted)): 1.51 µM

CC(C)C[C@H](NC(=O)[C@H](CO)NC(=O)[C@@H](NC(=O)[C@H](CCC(=O)O)NC(=O)[C@H](CCC(=O)O)NC(=O)[C@H](CS)NC(=O)[C@@H](NC(=O)[C@H](CCCNC(=N)N)NC(=O)[C@@H](NC(=O)[C@@H]1CCCN1C(=O)CCC(=O)NCCCOCCOCCOCCCNC(=O)CCCC[C@@H]1SC[C@@H]2NC(=O)N[C@@H]21)C(C)C)C(C)C)[C@@H](C)O)C(=O)O [OTULIN] ({X1-Suc}-PVRVCEETSL-OH; C-terminus assumed)
pKd (fragmentomic affinity) [1]: 5.58 | pKd_PDZ2 [3]: 4.70 | pKd_PDZ3 [4]: 5.64 | pKd_PDZ1 [5]: 5.44

CSCC[C@H](NC(=O)[C@@H](NC(=O)[C@H](CO)NC(=O)[C@H](CCC(=O)O)NC(=O)[C@H](CCCCN)NC(=O)[C@H](CCC(=O)O)NC(=O)[C@H](CO)NC(=O)[C@H](C)NC(=O)[C@@H](NC(=O)[C@@H](NC(=O)CCC(=O)NCCCOCCOCCOCCCNC(=O)CCCC[C@@H]1SC[C@@H]2NC(=O)N[C@@H]21)[C@@H](C)O)C(C)C)C(C)C)C(=O)O [SLC1A5] ({X1-Suc}-TVASEKESVM-OH; C-terminus assumed)
pKd (fragmentomic affinity) [1]: 5.29 | Kd [2]: 112 µM | pKd_PDZ3 [4]: 3.97 | pKd_PDZ1 [5]: 5.20 | Kd [6]: 8.91 µM

CC(C)C[C@H](NC(=O)[C@@H]1CCCN1C(=O)[C@H](Cc1c[nH]cn1)NC(=O)[C@H](Cc1ccccc1)NC(=O)CCC(=O)NCCCOCCOCCOCCCNC(=O)CCCC[C@@H]1SC[C@@H]2NC(=O)N[C@@H]21)C(=O)NCC(=O)N[C@@H](C)C(=O)N[C@@H](CC(=O)O)C(=O)N[C@@H](CO)C(=O)N[C@@H](CCC(N)=O)C(=O)N[C@H](C(=O)O)C(C)C [SLC2A1] ({X1-Suc}-FHPLGADSQV-OH; C-terminus assumed)
pKd (fragmentomic affinity) [1]: 4.05 | Kd [2]: 69.2 µM | pKd_PDZ3 [4]: 3.58 | pKd_PDZ1 [5]: 4.02 | Kd [6]: 25.1 µM

CC(C)[C@H](NC(=O)[C@@H]1CCCN1C(=O)[C@H](CO)NC(=O)[C@H](CCC(=O)O)NC(=O)[C@H](CCC(=O)O)NC(=O)[C@H](CCC(=O)O)NC(=O)[C@H](CCCCN)NC(=O)[C@@H]1CCCN1C(=O)CNC(=O)CNC(=O)CCC(=O)NCCCOCCOCCOCCCNC(=O)CCCC[C@@H]1SC[C@@H]2NC(=O)N[C@@H]21)C(=O)O [SLC16A1] ({X1-Suc}-GGPKEEESPV-OH; C-terminus assumed)
pKd (fragmentomic affinity) [1]: 5.27 | Kd [2]: 69.2 µM | pKd_PDZ1 [5]: 5.18 | Kd [6]: 6.17 µM
